Activity calls are given as the source filed them.
Assays:
Type in all cases: functional
[1] = target: Tyrosine-protein kinase JAK2 (Homo sapiens, UniProt O60674);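 further: JAK2 tested as one member of a kinase panel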
[2] = target: T1, Tyrosine-protein kinase receptor TYRO3 (Homo sapiens, UniProt Q06418);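 further: TYRO3 value obtained as one member of a kinome-wide profiling panel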
T1 sequence (Q06418 whole entry): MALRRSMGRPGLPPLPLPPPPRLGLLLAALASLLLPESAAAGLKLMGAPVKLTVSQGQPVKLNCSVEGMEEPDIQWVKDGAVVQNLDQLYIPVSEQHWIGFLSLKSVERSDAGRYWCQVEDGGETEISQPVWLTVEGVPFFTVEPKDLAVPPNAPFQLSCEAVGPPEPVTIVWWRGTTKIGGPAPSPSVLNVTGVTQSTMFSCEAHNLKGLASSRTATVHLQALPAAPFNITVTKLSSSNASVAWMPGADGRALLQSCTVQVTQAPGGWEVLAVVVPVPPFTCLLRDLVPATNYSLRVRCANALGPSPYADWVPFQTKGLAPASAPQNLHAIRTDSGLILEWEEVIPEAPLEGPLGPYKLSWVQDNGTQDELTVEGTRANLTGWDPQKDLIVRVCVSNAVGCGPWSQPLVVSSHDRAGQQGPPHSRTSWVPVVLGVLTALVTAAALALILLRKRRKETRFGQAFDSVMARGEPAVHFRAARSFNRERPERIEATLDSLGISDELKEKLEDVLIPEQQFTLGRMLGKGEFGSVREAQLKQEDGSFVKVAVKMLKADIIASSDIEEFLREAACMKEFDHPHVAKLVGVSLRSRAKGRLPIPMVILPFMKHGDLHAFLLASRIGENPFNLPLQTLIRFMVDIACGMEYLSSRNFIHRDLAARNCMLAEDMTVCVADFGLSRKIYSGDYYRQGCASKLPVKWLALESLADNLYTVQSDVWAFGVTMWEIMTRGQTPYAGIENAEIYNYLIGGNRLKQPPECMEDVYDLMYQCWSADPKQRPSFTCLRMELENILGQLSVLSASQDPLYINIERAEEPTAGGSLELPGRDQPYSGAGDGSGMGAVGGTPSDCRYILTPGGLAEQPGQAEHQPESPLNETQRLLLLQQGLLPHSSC

[3] = target: Glycogen synthase kinase-3 alpha (Homo sapiens, UniProt P49840);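 further: GSK3A result taken from a broad kinome-wide kinase panel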
[4] = target: T2, Mitogen-activated protein kinase kinase kinase kinase 2 (Homo sapiens, UniProt Q12851);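 further: measured as one member of a kinome-wide kinase panel, with MAP4K2 as the panel entry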
T2 sequence (Q12851 whole entry): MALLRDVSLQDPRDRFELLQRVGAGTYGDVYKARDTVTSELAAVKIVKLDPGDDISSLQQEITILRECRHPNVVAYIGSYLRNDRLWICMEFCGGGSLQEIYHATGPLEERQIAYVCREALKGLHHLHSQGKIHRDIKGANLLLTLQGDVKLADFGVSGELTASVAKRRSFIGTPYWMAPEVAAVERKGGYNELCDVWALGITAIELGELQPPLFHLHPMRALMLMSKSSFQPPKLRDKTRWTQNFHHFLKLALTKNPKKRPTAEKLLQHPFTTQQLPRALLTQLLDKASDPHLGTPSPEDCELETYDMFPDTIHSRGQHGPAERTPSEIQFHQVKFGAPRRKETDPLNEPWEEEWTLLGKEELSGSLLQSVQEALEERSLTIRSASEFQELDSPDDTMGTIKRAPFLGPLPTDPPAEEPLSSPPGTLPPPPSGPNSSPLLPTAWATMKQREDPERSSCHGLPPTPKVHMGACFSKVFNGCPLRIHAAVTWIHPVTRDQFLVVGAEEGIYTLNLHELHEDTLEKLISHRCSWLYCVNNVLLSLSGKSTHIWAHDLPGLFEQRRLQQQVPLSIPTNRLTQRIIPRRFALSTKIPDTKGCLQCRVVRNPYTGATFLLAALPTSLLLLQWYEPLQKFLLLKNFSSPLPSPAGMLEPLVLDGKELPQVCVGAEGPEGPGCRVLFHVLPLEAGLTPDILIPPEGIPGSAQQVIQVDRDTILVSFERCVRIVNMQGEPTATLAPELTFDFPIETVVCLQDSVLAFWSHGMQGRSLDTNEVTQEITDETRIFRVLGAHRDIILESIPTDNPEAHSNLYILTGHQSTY

Activated CDC42 kinase 1 = Activated CDC42 kinase 1 (Homo sapiens, UniProt Q07912); experiment: Navigating the Kinome. Panel member name: ACK1
[5] = target: Vascular endothelial growth factor receptor 2 (Homo sapiens, UniProt P35968)
Focal adhesion kinase 1 = Focal adhesion kinase 1 (Homo sapiens, UniProt Q05397);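 further: measured as one member of a kinome panel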
Aurora kinase B = Aurora kinase B (Homo sapiens, UniProt Q96GD4)
[6] = target: Tyrosine-protein kinase Fyn (Homo sapiens, UniProt P06241)
[7] = target: Dual specificity tyrosine-phosphorylation-regulated kinase 1A (Homo sapiens, UniProt Q13627);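 further: measured against DYRK1A as one member of a broad kinome profiling panel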
Protein RecA = target: T3, Protein RecA (Mycobacterium tuberculosis, UniProt P9WHJ3); experiment: Fluorescence Cell-Free Homogeneous Dose Retest to Identify Inhibitors of RecA-Intein Splicing Activity. [Related pubchem assays (depositor defined):AID2097, AID2223, AID489010, AID492950]
T3 sequence (P9WHJ3 whole entry): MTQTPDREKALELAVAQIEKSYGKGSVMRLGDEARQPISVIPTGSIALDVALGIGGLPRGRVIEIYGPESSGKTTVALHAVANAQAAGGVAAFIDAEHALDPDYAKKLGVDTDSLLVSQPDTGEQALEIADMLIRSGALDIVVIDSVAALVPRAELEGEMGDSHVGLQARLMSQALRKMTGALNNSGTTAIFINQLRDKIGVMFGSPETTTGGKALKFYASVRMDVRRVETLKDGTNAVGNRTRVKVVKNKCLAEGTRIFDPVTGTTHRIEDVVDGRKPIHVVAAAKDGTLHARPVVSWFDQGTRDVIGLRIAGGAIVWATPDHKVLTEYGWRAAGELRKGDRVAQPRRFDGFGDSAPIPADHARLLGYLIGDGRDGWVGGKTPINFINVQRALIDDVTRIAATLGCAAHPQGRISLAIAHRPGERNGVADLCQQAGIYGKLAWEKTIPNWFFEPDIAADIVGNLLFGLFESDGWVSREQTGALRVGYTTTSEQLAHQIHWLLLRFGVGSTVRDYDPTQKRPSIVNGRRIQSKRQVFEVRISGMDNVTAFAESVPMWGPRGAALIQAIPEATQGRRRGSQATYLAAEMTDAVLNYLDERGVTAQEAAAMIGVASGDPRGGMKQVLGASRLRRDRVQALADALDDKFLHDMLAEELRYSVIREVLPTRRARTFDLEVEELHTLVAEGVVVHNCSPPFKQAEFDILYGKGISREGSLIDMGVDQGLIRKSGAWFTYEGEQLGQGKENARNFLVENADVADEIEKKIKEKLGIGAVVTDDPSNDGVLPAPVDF

Chain of Activated CDC42 kinase 1 (Q07912 whole entry): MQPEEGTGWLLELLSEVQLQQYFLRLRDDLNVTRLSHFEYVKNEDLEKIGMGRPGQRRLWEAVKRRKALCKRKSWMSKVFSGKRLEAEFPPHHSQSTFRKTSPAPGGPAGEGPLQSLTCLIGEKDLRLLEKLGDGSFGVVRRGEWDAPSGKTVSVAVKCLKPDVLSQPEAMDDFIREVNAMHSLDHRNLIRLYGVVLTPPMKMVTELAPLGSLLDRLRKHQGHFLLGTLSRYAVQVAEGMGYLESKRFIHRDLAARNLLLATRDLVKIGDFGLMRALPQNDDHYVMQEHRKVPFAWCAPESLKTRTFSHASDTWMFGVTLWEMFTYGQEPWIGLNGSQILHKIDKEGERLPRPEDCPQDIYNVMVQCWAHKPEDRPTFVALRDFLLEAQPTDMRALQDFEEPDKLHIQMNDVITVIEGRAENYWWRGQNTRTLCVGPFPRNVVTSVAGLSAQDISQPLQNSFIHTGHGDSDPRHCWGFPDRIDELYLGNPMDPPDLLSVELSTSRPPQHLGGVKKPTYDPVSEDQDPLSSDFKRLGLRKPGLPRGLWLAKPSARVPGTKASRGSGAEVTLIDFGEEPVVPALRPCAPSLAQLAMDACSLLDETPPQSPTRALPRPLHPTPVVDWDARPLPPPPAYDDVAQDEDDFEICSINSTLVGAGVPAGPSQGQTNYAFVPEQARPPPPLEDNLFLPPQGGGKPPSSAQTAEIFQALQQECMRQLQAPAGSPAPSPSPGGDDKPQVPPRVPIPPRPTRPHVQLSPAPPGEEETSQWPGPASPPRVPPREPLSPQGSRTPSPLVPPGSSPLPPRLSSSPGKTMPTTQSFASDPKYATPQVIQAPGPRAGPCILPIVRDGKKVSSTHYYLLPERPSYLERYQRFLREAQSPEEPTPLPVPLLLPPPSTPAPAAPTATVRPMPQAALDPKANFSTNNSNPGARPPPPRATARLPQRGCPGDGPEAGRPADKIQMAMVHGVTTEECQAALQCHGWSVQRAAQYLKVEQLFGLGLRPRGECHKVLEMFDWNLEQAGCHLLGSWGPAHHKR
Chain of Glycogen synthase kinase-3 alpha (P49840 whole entry): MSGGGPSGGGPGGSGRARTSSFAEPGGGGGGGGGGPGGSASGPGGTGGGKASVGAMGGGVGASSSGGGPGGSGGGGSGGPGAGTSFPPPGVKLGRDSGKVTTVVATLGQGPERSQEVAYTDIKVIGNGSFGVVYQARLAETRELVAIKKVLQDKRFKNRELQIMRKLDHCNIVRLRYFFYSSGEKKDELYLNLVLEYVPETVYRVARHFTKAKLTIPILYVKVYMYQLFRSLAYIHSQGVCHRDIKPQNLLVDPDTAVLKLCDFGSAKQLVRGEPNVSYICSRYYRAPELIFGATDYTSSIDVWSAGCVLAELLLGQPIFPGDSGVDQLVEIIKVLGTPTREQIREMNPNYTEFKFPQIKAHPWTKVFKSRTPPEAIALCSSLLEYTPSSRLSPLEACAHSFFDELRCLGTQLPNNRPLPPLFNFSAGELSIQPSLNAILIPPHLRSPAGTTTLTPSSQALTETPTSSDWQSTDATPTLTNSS
Chain of Tyrosine-protein kinase Fyn (P06241 whole entry): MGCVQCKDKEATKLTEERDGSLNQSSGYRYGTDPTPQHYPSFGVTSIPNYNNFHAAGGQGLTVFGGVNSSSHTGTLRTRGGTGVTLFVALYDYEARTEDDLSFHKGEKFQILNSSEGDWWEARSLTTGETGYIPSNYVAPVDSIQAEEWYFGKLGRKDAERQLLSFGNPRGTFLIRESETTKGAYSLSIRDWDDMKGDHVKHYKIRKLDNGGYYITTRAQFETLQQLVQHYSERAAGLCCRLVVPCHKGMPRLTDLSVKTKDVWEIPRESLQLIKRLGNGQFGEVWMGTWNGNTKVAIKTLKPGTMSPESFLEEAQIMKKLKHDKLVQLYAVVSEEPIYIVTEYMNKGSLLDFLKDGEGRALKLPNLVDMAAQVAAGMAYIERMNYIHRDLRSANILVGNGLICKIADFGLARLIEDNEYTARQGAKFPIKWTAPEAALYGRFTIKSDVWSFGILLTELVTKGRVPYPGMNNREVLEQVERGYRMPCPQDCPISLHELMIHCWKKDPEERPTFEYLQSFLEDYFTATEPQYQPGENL
Chain of Tyrosine-protein kinase JAK2 (O60674 whole entry): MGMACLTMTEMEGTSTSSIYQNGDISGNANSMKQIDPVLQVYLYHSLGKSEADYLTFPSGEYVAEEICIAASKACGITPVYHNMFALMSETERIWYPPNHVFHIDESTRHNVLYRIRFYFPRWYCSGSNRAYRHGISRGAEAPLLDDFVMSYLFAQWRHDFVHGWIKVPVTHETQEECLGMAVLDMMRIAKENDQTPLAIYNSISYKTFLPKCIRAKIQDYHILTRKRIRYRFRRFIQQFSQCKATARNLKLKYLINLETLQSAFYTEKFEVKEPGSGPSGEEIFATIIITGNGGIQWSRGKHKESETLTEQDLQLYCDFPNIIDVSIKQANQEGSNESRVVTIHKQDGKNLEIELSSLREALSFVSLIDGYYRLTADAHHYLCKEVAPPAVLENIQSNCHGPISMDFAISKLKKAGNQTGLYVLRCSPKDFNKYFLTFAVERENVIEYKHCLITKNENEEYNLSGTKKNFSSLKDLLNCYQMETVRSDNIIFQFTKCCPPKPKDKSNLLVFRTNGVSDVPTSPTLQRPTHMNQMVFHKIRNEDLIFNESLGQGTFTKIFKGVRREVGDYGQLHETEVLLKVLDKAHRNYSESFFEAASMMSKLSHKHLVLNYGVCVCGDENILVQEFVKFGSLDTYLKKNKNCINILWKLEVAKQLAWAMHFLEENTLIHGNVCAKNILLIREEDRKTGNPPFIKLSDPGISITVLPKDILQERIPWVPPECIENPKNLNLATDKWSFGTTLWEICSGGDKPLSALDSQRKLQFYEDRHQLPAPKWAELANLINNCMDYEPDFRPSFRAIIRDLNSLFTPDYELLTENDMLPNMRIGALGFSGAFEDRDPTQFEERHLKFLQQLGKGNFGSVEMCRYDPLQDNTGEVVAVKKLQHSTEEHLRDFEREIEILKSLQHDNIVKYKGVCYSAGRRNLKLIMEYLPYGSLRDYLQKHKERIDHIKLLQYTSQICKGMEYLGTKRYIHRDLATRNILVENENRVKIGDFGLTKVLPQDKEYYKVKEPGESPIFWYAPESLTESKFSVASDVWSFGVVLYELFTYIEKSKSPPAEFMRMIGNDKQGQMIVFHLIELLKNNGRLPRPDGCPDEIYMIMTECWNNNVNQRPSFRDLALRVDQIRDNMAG
Chain of Vascular endothelial growth factor receptor 2 (P35968 whole entry): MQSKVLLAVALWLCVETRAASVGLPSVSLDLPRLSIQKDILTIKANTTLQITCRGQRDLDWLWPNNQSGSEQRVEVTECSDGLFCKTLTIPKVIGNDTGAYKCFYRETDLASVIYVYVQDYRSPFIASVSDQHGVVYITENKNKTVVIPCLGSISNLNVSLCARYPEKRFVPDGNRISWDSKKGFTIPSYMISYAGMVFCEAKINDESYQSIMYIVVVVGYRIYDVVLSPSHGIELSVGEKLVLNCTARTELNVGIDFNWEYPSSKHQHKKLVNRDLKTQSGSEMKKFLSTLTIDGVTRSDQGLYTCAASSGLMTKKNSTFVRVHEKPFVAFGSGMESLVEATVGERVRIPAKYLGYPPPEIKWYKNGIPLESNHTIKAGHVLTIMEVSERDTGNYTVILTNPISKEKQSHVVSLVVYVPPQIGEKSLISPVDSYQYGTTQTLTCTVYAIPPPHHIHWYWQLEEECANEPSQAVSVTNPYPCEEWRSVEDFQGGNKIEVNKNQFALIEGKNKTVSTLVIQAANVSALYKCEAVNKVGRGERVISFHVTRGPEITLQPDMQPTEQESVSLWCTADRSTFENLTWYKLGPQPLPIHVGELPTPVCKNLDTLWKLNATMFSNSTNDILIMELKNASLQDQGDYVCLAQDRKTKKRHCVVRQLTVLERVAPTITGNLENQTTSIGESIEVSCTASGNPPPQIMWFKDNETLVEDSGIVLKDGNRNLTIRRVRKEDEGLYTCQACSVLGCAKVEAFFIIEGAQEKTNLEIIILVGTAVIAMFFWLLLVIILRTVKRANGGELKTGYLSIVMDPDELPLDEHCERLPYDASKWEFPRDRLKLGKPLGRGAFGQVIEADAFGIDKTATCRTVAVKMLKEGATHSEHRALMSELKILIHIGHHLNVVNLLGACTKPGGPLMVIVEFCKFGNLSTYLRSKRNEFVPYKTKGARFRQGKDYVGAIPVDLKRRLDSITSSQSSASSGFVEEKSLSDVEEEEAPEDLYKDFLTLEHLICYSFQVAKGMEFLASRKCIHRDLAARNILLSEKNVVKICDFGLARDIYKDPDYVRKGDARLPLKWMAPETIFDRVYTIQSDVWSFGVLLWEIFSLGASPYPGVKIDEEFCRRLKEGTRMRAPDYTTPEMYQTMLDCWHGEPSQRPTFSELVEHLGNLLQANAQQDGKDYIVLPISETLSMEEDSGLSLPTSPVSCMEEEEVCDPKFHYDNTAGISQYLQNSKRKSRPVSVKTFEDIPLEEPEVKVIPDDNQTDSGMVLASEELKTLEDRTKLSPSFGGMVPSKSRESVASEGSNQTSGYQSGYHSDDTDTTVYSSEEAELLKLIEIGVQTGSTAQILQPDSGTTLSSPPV
Chain of Aurora kinase B (Q96GD4 whole entry): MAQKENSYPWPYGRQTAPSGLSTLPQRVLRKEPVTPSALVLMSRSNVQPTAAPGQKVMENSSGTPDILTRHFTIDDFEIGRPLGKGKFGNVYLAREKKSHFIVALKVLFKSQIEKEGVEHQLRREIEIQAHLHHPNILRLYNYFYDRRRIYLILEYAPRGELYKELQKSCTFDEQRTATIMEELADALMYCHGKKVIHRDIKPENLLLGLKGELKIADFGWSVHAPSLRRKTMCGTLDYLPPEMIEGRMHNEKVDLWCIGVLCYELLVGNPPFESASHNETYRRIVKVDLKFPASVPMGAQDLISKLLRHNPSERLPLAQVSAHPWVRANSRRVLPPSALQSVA

| SMILES | Ki [1] | Ki [2] | Ki [3] | Ki [4] | Ki (Activated CDC42 kinase 1) | Ki [5] | Ki (Focal adhesion kinase 1) | Ki (Aurora kinase B) | Ki [6] | Ki [7] | EC50 (Protein RecA) |
| --- | --- | --- | --- | --- | --- | --- | --- | --- | --- | --- | --- |
| O=C(Nc1cccc(C(F)(F)F)n1)Nc1ccnc2cc(OC(F)F)ccc12 | > 2.51 µM (inactive) | > 3.16 µM (inactive) | 0.0158 µM (active) | > 2.51 µM (inactive) | > 3.98 µM (inactive) | > 1.58 µM (inactive) | > 6.31 µM (inactive) | > 3.98 µM (inactive) | > 6.31 µM (inactive) | > 2 µM (inactive) | – |
| O=C(Nc1cccc(C(F)(F)F)n1)Nc1ccnc2cc(Cl)ccc12 | 2.51 µM (active) | > 3.16 µM (inactive) | 0.0158 µM (active) | > 2.51 µM (inactive) | > 3.98 µM (inactive) | > 2.51 µM (inactive) | – | > 3.98 µM (inactive) | > 6.31 µM (inactive) | > 2 µM (inactive) | – |
| O=C(Cc1ccccc1)NC1(O)C(=O)c2ccccc2C1=O | – | – | – | – | – | – | – | – | – | – | 8.67 µM (active) |
| COC(=O)c1nc(-c2ccc3c(n2)C(=O)C(=N)C(OC)=C3O)c(N)c(-c2ccc(OC)c(OC)c2O)c1C | – | – | – | – | – | – | – | – | – | – | 0.342 µM (active) |
| Cc1cc(C)c(S(=O)(=O)/N=C2\C=C(Nc3ccc(C(=O)O)cc3)C(=O)c3ccccc32)c(C)c1 | – | – | – | – | – | – | – | – | – | – | 0.0696 µM (active) |
| CCC1CC(NS(=O)(=O)C2CC2)CC1c1ncc2cnc3[nH]ccc3n12 (stereo unspecified) | 0.000126 µM (active) | > 2 µM (inactive) | > 3.98 µM (inactive) | > 2.51 µM (inactive) | 1.58 µM (active) | 1 µM (active) | > 6.31 µM (inactive) | – | > 6.31 µM (inactive) | > 2 µM (inactive) | – |
| O=c1[nH]c2cc(Br)cnc2[nH]1 | 79.4 µM (active) | 31.6 µM (active) | 63.1 µM (active) | 12.6 µM (active) | 50.1 µM (active) | 20 µM (active) | 31.6 µM (active) | 5.01 µM (active) | 100 µM (active) | 3.98 µM (active) | – |
